For assay [1], the system named is Pseudomonas tomato. Put plainly: Preventative foliage spraying of tomato seedlings in greenhouse. The format is in vivo. Conditions: for Average level of ill seedlings: Cupric acetate 0.15 %, levels 0-5. How it is done:
The trials were carried out against bacterial diseases in the following crops: • a. In pepper - Bacterial spot of pepper (Xanthomonas vesicatoria). • b. In tomatoes - Bacterial specic of tomato (Pseudomonas tomato). • c. In cauliflower - Black rot (Xanthomonas camoestris). • 2. […].
In trials that were carried out in the greenhouse, plants at age of 3 - 5 leaves that were grown in "speedling system", were used. Plants were allowed to grow in the original trays without contact between them.
About 48 hours before the infection, the bacterial pathogen was transferred (for multiplication) to a suitable growth medium (see materials and methods of para I hereinbefore)at optimal temperature until all the medium was covered by bacteria. Then a suspension of bacteria at concentration of 1 x 10' - […] per cm^2 was prepared. The bacterial suspension was sprayed to runoff with a hand sprayer on to the leaves of the test plants. Spraying was made on dry leaves with the addition of carborundum to the spray solution in order to ensure better infection. In trials where the efficacy of the treatments was evaluated in preventative treatments, the application was given a few hours before the bacterial infection.
In the preventative treatments, the products were applied a few hours before the bacterial infection. In the curative treatments, the application was carried out 20 hours after bacterial infection. After application, when plants dried out they were transferred to a fog chamber with controlled conditions.
In trials that were carried out in the greenhouse, the plants were transferred after the application and infection, to control conditions of fogginess and suitable temperatures for bactena, till the end of the trial.
Infection was evaluated in the seedlings according to the following key: 0 = healthy seedling, without symptoms of disease, 5 = complete coverage of the seedling with spots of disease, or dead seedling. The intermediate degrees were given according to the severity of the disease in the leaves.
In tomatoes, several trials were carried out in greenhouse under conditions of fog chamber and artificial infection in order to evaluate the efficacy of Terrazole (trade mark) and copper, in different rates and combinations, in preventing and controlling bacterial diseases specic of tomato caused by Pseudomonastomato.
In one trial, various treatments were examined in prevention of disease, as appears in Table IX.

In the next assay the test system is X. campestris. The settings on record: for Percent of infected seedlings: cupric acetate 0.1 %. How it is done: (§1) In this method, the efficacy of the disinfection is examined by a bioassay. After seed disinfection, the seeds are dried and sown in the soil, and kept in a humid cell with suitable temperature. The efficacy of the treatment is determined by the level of infestation in the seedlings.
Trials were carried out in seeds of cabbage and cauliflower infested with Xanthomonas camoestris. […] Seeds were dipped in all treatments for 10 to 20 minutes at temperatures of 25°C and 45°C.
The efficacy of the disinfection process was checked in a bio assay system.

The next assay deals with X. translucens. Conditions: for Bacteria per gr. seeds: cupric acetate 0.1%, infected seeds. The method, then: In this method, live bacterial pathogens that survived the seed disinfection, were counted. Treated seeds were dried by vaporization. Five grams of dried seeds from each treatment were ground in a grinder of 20 mesh and transferred to a solution containing 0.1% agar in water and were shaken for 30 minutes. From each sample, 10x dilutions were prepared. From each of the various dilutions, 0.1 ml was taken and placed in a suitable medium in a petri-dish, with a Drigalski stick. After 4 days of incubation at temperature of 27°C, colonies of the bacterial pathogens were counted in each petri-dish.
The assessment of efficacy was carried out by counting of the number of bacteria that remained alive in the seeds after the disinfection and in a bio-assay system. (See Materials and Methods).
In this trial the efficacy of the products in disinfecting wheat seeds was tested at various periods of time from 5 to 60 minutes. Disinfected seeds were compared with seeds treated with water (check) and with seeds that were defined in laboratory as seeds clean from the pathogen. Efficacy of the treatments was measured by counting the amount of bacteria that remained alive in the seeds. The trial was carried out in five replicates.

Assay [2] deals with Pseudomonas tomato, Xanthomonasvesicatoria, X. translucens, X. camoestris. Conditions: 0.8% cupric acetate in aqueous solution; each of the four species.
Protocol: G. Evaluation of product activity by direct contact with the bacteria: • The efficacy of a number of products by a direct contact with the bacteria was checked as follows: Preparation of solutions of different concentrations of the examined products. Soaked bacteria suspension in the solutions for a period of 10 minutes. Filtration of the solution containing bacteria through milipore disc, so that the bacteria are concentrated on the disc. Rinsing the disc with distilled water. Placing the disc in a measured amount of water with 0.1 % agar, and shaking the disc in this solution in order to transfer the bacteria from the disc to the solution. Making 10x dilutions and direct placing on suitable medium (see section F1 above).
In this trial, 11 concentrations of cupric-acetate in aqueous solution were checked, from 0.001 - 0.8% by weight. […] All treatments were checked against the four species of bacteria mentioned.
Assay [3] relates to Pseudomonas tomato. The settings on record: cupric acetate 0.1 %. The method, then: In all trials, seed disinfection was carried out by dipping the seeds in different chemical solutions. The variable factors were: • 1. Different times of dipping: 10, 20, 30 and 60 minutes. • 2.. Different temperatures of dipping: room temperature (20°C), and a higher temperature (45°C).
as §1
In tomatoes, disinfection trials were carried out against two bacterial diseases. Most of the work was done in order to examine the efficacy of the mixtures in controlling bacterial specic of tomato caused by Pseudomonas tomato. Later on some trials were carried out against a relatively new disease in Israel - "rotten pith" caused by P. coruoata. Trial 7
Also, different dipping times and temperatures were checked. Efficacy of disinfection was evaluated by assessing the disease appearance in the seedlings which was caused by infection of the treated seeds.

Like-named read-outs stand apart in the source and are kept apart here. Bounds are passed on as bounds.

On to cupric acetate, for which the “Percent of ill seedlings” value with Pseudomonas tomato [1] (Cupric acetate 0.1 %, preventative spraying, ten days after the infection) turned out to be 34.2%. For the same substance, the “Average level of ill seedlings” value turned out to be 0.30 in the assay on Pseudomonas tomato [1] (9 days after infection), 1.85 in the assay with Pseudomonas tomato [1] (11 days after infection) and 2.80 with Pseudomonas tomato [1] (13 days after infection). The “Percent of infected seedlings” value in the assay on X. campestris (25 °C 10 min.) was 78.6%; in the assay on X. campestris (25 °C 20 min.), 56.0%; with X. campestris (40 °C 10 min.), 45.0%; in the assay on X. campestris (40 °C 20 min.) it was 35.0%. This substance gave a disease control with X. campestris (cupric acetate, at any of the trial conditions) of at most 38%. In addition, the “Bacteria per gr. seeds” value stood at 6040 b per gr. seeds in the assay on X. translucens (5 minutes), 2920 b per gr. seeds in the assay with X. translucens (10 minutes) and 496 b per gr. seeds in the assay with X. translucens (20 minutes). The “control in comparison with the untreated seeds” value in the assay on X. translucens (cupric acetate, dipping 20 minutes) is given as 94%. In addition, the bacteria remained alive result in assay [2] was “about 10^3 bacteria per cm^2 of water”. Further, the “% Infected plants” value is reported as 28.0% with Pseudomonas tomato [3] (dipping 10 minutes, 25 °C); 17.0% in the assay with Pseudomonas tomato [3] (dipping 10 minutes, 40 °C); 27.5% in the assay with Pseudomonas tomato [3] (dipping 20 minutes, 25 °C); 14.0% in the assay with Pseudomonas tomato [3] (dipping 20 minutes, 40 °C). For the same substance, the “Improvement in control, in comparison with the untreated control” value in the assay on Pseudomonas tomato [3] (dipping 10 minutes, 25 °C) was determined as 37.8; in the assay on Pseudomonas tomato [3] (dipping 10 minutes, 40 °C), 62.2; in the assay with Pseudomonas tomato [3] (dipping 20 minutes, 25 °C), 38.9; with Pseudomonas tomato [3] (dipping 20 minutes, 40 °C) it was 68.9.

The values above are taken from EP0189971A2, “Composition containing a thiadiazole derivative and method for treating plants against bacteria” (PALIMPORT LTD., priority 1985, dated 1986).
